From patent US4501748A, “1,4-Dihydropyridine derivatives” (Kyowa Hakko Kogyo Co., Ltd., priority 1983, dated 1985)
Counter-ions that a name gives are not always drawn.

Experiments:
[1] = Acute toxicity, oral administration to mice (survival rate 72 hours after administration); assay type: in vivo, mice (ddY type; details: mouse, in vivo, mice ddY male
Description: (§1) Drugs were compulsorily orally administered to mice (ddY type, body weight of 20 to 24 g, male) and the survival rate 72 hours after the administration was studied. A suspension of each of the drugs in water having added a small quantity of Tween 80 thereto was orally given at the dose of 0.1 ml/10 g mouse body weight, using a gastric tube.

[2] = tested on: Spontaneously hypertensive rat (SHR); experiment: Hypotensive effect: intravenous administration to SHR (no anesthesia); assay type: in vivo, Okamoto strain, male); details: 5 animals
Description: (1.) Intravenous Administration to SHR (no anesthesia)
Spontaneously hypertensive rat (SHR) (Okamoto strain, aging 20 to 30 weeks, male) were anesthetized with sodium thiopental (50 mg/kg, ip). A cannula for measuring blood pressure was inserted into the descending aorta from the right femoral artery and a cannula for intravenous administration was inserted into the left carotid vein, and these cannulas were fixed on the […], respectively. Change in blood pressure by intravenous administration of each of drugs were measured next day without any anesthesia. As the drugs, a solution of each of the drugs in polyethylene glycol 400 was intravenously administered at the dose of 0.1 ml/100 g body weight of the rat.

[3] = tested on: Spontaneously hypertensive rat (SHR); experiment: Hypotensive effect: oral administration to SHR (no anesthesia), plethysmographic tail method; assay type: in vivo, Okamoto Strain, male)
Description: (2) Oral Administration to SHR (no anesthesia)
Change in systolic blood pressure when drugs were orally administered to spontaneously hypertensive rat (SHR) (Okamoto Strain, aging 15 to 26 weeks, male) was measured by the plethysmographic tail method (Ueda Seisakusho, USM-105R).
Drugs were compulsorily orally administered at the dose of 0.5 ml/100 g body weight of the rat in the form of a suspension in 0.3% carboxymethyl cellulose, using a gastric tube.

mice = experiment: Acute toxicity, oral administration to mice (survival rate 72 hours after administration); assay type: in vivo, mice (ddY type; details: mice ddY male, hydrochloride, 4320 min
Description: as §1

[4] = LD50 in the oral administration in male rats; details: rat, in vivo
[5] = Hypotensive effect (general statement); assay type: in vivo; details: among the (±)-α-form

Row | Structure (SMILES) | LD50 at 72 h [1] | Maximum Decrease in Mean Blood Pressure ([2]; 1 μg/kg i.v.) | Maximum Decrease in Mean Blood Pressure ([2]; 10 μg/kg i.v.) | Maximum Decrease in Systolic Blood Pressure ([3]; 1 mg/kg p.o., 8 animals) | Acute Toxicity LD50 (mice) | LD50 [4] | Maximum Decrease in Mean Blood Pressure ([2]; 10 μg/kg i.v., hydrochloride) | hypotensive effect [5] | Maximum Decrease in Mean Blood Pressure ([2]; 100 μg/kg i.v.) | Maximum Decrease in Systolic Blood Pressure ([3]; 3 mg/kg p.o., 4 animals) | Maximum Decrease in Systolic Blood Pressure ([3]; 10 mg/kg p.o., 4 animals)
1 | COC(=O)C1=C(C)NC(C)=C(C(=O)OC2CCCN(Cc3ccccc3)C2)C1c1cccc([N+](=O)[O-])c1 (racemic) [(±)-α-form, (±)-2,6-dimethyl-4-(3-nitrophenyl)-1,4-dihydropyridine-3,5-dicarboxylicacid-3-(1-benzyl-3-piperidyl)ester-5-methyl ester] | 218 mg/kg | 23.1 ± 6.4 mmHg | 45.6 ± 6.5 mmHg | 35.6 ± 6.3 mmHg |  |  |  |  |  |  | 
2 | COC(=O)C1=C(C)NC(C)=C(C(=O)OC2CCCN(Cc3ccccc3)C2)C1c1cccc([N+](=O)[O-])c1 (single isomer, unassigned) [(+)-α-form, (+)-α-2,6-dimethyl-4-(3-nitrophenyl)-1,4-dihydropyridine-3,5-dicarboxylic acid-3-(1-benzyl-3-piperidyl)ester-5-methyl ester hydrochloride] |  | 42.2 ± 11.5 mmHg |  | 56.3 ± 13.0 mmHg | 95 mg/kg | 95 mg/kg | 67.4 ± 4.7 mmHg | excellent hypotensive effect |  |  | 
3 | COC(=O)C1=C(C)NC(C)=C(C(=O)OC2CCCN(Cc3ccccc3)C2)C1c1cccc([N+](=O)[O-])c1 (single isomer, unassigned) [(-)-α-form, (-)-α-2,6-dimethyl-4-(3-nitrophenyl)-1,4-dihydropyridine-3,5-dicarboxylic acid-3-(1-benzyl-3-piperidyl)ester-5-methyl ester hydrochloride] |  |  |  |  | 918 mg/kg |  | 23.4 ± 7.9 mmHg |  | 27.3 ± 6.1 mmHg | 22.5 ± 9.6 mmHg | 30.0 ± 5.3 mmHg
